Assay results as given in US7173037B2, “Carbamate-substituted pyrazolopyridines” (Bayer HealthCare AG, priority 2002, dated 2007).
Where two headings read alike, the source gives them in different places.

Experiments:
rabbit aorta rings = experiment: Vasorelaxant effect in vitro (phenylephrine-contracted aorta rings); format: cell-based; settings: Oryctolagus cuniculus, phenylephrine contraction, read-out: IC50 (concentration necessary to reduce the height of the contraction by 50%)
Experimental: Rabbits are stunned by a blow to the back of the neck and are exsanguinated. The aorta is removed, freed of adherent tissue and divided into rings 1.5 mm wide, which are put singly under tension in 5 ml organ baths containing carbogen-gassed Krebs-Henseleit solution at 37° C. with the following composition (mM): NaCl:119; KCl:4.8; CaCl2×2H2O:1; MgSO4×7H2O:1.4; KH2PO4:1.2; NaHCO3:25; Glucose:10. The force of contraction is detected with Statham UC2 cells, amplified and digitized via A/D converters (DAS-1802 HC, Keithley Instruments Munich) and recorded in parallel on chart recorders. A contraction is generated by adding phenylephrine to the bath cumulatively in increasing concentration. After several control cycles, the substance to be investigated is investigated in each further run in increasing dosage in each case, and the height of the contraction is compared with the height of the contraction reached in the last preceding run. The concentration necessary to reduce the height of the control value by 50% (IC50) is calculated from this. The standard application volume is 5 μl, and the DMSO content in the bath solution corresponds to 0.1%.

CYP2B6 [1] = settings: human, hepatocytes, 5 days
[2] = set-up: species or system rats; settings: rat, in vivo, po
Experimental: The substance to be investigated is administered intravenously as solution to animals (e.g. mice, rats, dogs), and oral administration takes place as solution or suspension by gavage. After administration of the substance, blood is taken from the animals at fixed times and is heparinized, and then plasma is obtained therefrom by centrifugation. The substance is quantified analytically in the plasma by LC/MS/MS. The plasma concentration/time courses found in this way are used to calculate the pharmacokinetic parameters by means of a validated pharmacokinetic computer programme.
Inhibition of Cytochrome P450 Enzymes

CYP1A2 = experiment: Induction of cytochrome P450 enzymes in human liver cell cultures, CYP1A2; format: in vitro ADME; settings: human hepatocyte cultures, control = 1.0
rabbit penis erection = experiment: Rabbit model (erection, length of the protruding penis); format: in vivo, chinchilla rabbits; settings: oral administration, with simultaneous 0.2 mg/kg i.v. sodium nitroprusside SNP
Experimental: Adult male chinchilla rabbits weighing 3–5 kg are adapted to being kept singly for several days after delivery. They have free access to water and can take feed for two hours a day. The animals are kept in a 10/14-hour day/night rhythm (light on from 8.00 h), and the room temperature is 22–24° C.
Three to six animals are used in each treatment group and are weighed immediately before the start of the test. For the i.v. administration, the substances are dissolved in Transcutol (GATTEFOSSE GmbH) and diluted in the ratio 3/7 with a 20% strength Cremophor solution (Cremophor (BASF), water). A volume of 0.5 ml/kg is injected into the ear vein. Water-soluble substances are injected in 0.9% sodium chloride solution.
For oral administration, the test substances are dissolved in a 6:10:9.69 glycerol:water:polyethylene glycol mixture and administered by gavage in a volume of 1 ml/kg.
Under resting conditions, the rabbit penis is invisible in the pubic region and is completely covered by the penis skin. The erection is assessed by measuring the length of the protruding penis with a slide calliper. […] The animals are for this purpose removed from the cage each time, held firmly by the neck fur and the rear paws, turned on their backs and measured. […]

CYP3A4 = settings: human, hepatocytes
CYP2C19 [3] = settings: human, hepatocytes, 5 days
CYP2B6 [4] = experiment: Induction of cytochrome P450 enzymes in human liver cell cultures, CYP2B6; settings: human hepatocyte cultures, 2000 μM, control = 1.0
CYP2C19 [5] = experiment: Induction of cytochrome P450 enzymes in human liver cell cultures, CYP2C19; settings: human hepatocyte cultures, 2000 μM, control = 1.0

COC(=O)N(C)c1cnc(-c2nn(Cc3ccccc3F)c3ncccc23)nc1N [Example 1, Methyl 4-amino-2-[1-(2-fluorobenzyl)-1H-pyrazolo[3,4-b]pyridin-3-yl]-5-pyrimidinyl(methyl)carbamate]
IC50 (rabbit aorta rings): 670 nM

COC(=O)N(C)c1c(N)nc(-c2nn(Cc3ccccc3F)c3ncccc23)nc1N [Example 8, Methyl 4,6-diamino-2-[1-(2-fluorobenzyl)-1H-pyrazolo[3,4-b]pyridin-3-yl]-5-pyrimidinyl(methyl)carbamate]
Inductive effect on CYP2B6 activity (standardized) (CYP2B6 [1]; 0.01 μg/ml): 1.92 | Inductive effect on CYP2B6 activity (standardized) (CYP2B6 [1]; 0.1 μg/ml): 1.62 | Inductive effect on CYP2B6 activity (standardized) (CYP2B6 [1]; 1 μg/ml): 1.85 | Inductive effect on CYP2B6 activity (standardized) (CYP2B6 [1]; 10 μg/ml): 2.54 | IC50 (rabbit aorta rings): 500 nM | AUCstand ([2]; 0.3 mg/kg): 0.326 kg·h/L | AUCstand ([2]; 1 mg/kg): 0.548 kg·h/L | Inductive effect on CYP1A2 activity (standardized) (CYP1A2; 0.01 μg/ml): 0.76 | Inductive effect on CYP1A2 activity (standardized) (CYP1A2; 0.1 μg/ml): 0.70 | Inductive effect on CYP1A2 activity (standardized) (CYP1A2; 1.0 μg/ml): 0.90 | Inductive effect on CYP1A2 activity (standardized) (CYP1A2; 10 μg/ml): 1.38 | minimal effective dose (rabbit penis erection): 0.03 mg/kg | Inductive effect on CYP3A4 activity (standardized) (CYP3A4; 5 days, 0.01 μg/ml): 1.37 | Inductive effect on CYP3A4 activity (standardized) (CYP3A4; 5 days, 0.1 μg/ml): 1.60 | Inductive effect on CYP3A4 activity (standardized) (CYP3A4; 5 days, 1 μg/ml): 1.51 | Inductive effect on CYP3A4 activity (standardized) (CYP3A4; 5 days, 10 μg/ml): 3.47 | Inductive effect on CYP2C19 activity (standardized) (CYP2C19 [3]; 0.01 μg/ml): 1.30 | Inductive effect on CYP2C19 activity (standardized) (CYP2C19 [3]; 0.1 μg/ml): 1.30 | Inductive effect on CYP2C19 activity (standardized) (CYP2C19 [3]; 1 μg/ml): 1.12 | Inductive effect on CYP2C19 activity (standardized) (CYP2C19 [3]; 10 μg/ml): 1.97

COc1ccc2[nH]c([S+]([O-])Cc3ncc(C)c(OC)c3C)nc2c1 (stereo not drawn) [OME, omeprazole, reference compound]
Inductive effect on CYP2B6 activity (standardized) (CYP2B6 [1]; 100 μM): 1.54 | Inductive effect on CYP1A2 activity (standardized) (CYP1A2; 100 μM): 28.57 | Inductive effect on CYP3A4 activity (standardized) (CYP3A4; 5 days, 100 μM): 1.45 | Inductive effect on CYP2C19 activity (standardized) (CYP2C19 [3]; 100 μM): 1.61

CCC1(c2ccccc2)C(=O)NC(=O)NC1=O [PB, phenobarbital]
Inductive effect on CYP2B6 activity (standardized) (CYP2B6 [4]): 14.69 | Inductive effect on CYP2C19 activity (standardized) (CYP2C19 [5]): 4.00 | Inductive effect on CYP3A4 activity (standardized) (CYP3A4): 6.70

CO[C@H]1/C=C/O[C@@]2(C)Oc3c(C)c(O)c4c(O)c(c(/C=N/N5CCN(C)CC5)c(O)c4c3C2=O)NC(=O)/C(C)=C\C=C\[C@H](C)[C@H](O)[C@@H](C)[C@@H](O)[C@@H](C)[C@H](OC(C)=O)[C@@H]1C [RIF, rifampicin, reference compound]
Inductive effect on CYP2B6 activity (standardized) (CYP2B6 [1]; 50 μM): 5.15 | Inductive effect on CYP2C19 activity (standardized) (CYP2C19 [3]; 50 μM): 15.21
